Biological target: T1, ΔF508-CFTR (Homo sapiens, UniProt P13569, DEL508-508)
T1 construct: Primary lung epithelial cells (hBEs) homozygous for the Cystic Fibrosis-causing ΔF508 mutation; endogenous in cells; host or cells: primary lung (bronchial) epithelial cells (hBE) homozygous for ΔF508, differentiated at an air-liquid interface
Assay: hBE equivalent current (Ieq) assay, AUC of equivalent chloride current
Format: cell-based
Settings: compound at 10 uM, 24 h, primary hBE cells homozygous ΔF508; AUC increase relative to VX-809 at 1 uM
Method: Primary lung epithelial cells homozygous for the Cystic Fibrosis-causing ΔF508 mutation were differentiated for a minimum of 4 weeks in an air-liquid interface on Costar 24 well HTS filter plates prior to the equivalent current (Ieq) measurements. Cells were apically mucus-washed for 30 minutes 24 h prior to treatment with compounds. The basolateral media was removed and replaced with media containing the compound of interest diluted to its final concentration from DMSO stocks. Treated cells were incubated at 37° C. and 5% CO2 for 24 hours. At the end of the treatment period, the media was changed to the Ieq experimental solution for 30 minutes before the experiment and plates are maintained in a CO2-free incubator during this period. The plates containing the cells were then placed in pre-warmed heating blocks at 36° C.±0.5 for 15 minutes before measurements are taken. The transepithelial voltage (VT) and conductance (GT) were measured using a custom 24 channel current clamp (TECC-24) with 24 well electrode manifold. The Ieq assay measurements were made following additions with standardized time periods: • 1. The baseline VT and GT values were measured for approximately 20 minutes. • 2. Benzamil was added to block ENaC for 15 minutes. • 3. Forskolin plus VX-770 were added to maximally activate ΔF508-CFTR for 27 minutes. • 4. Bumetanide was added to inhibit the NaK2Cl cotransporter and shut-off secretion of chloride. The activity data captured was the area under the curve (AUC) for the traces of the equivalent chloride current. The AUC was collected from the time of the forskolin/VX-770 addition until the inhibition by bumetanide addition. Correction in response to compound treatment was scored as the increase in the AUC for compound-treated samples over that of vehicle-treated samples. (++ indicates activity ≧25% run at 10 uM of VX-809 at 1 uM, + indicates activity 10 to ≦25% run at 10 uM of VX-809 at 1 uM.

T1 sequence (P13569 with tags, fused parts or gaps DEL508-508): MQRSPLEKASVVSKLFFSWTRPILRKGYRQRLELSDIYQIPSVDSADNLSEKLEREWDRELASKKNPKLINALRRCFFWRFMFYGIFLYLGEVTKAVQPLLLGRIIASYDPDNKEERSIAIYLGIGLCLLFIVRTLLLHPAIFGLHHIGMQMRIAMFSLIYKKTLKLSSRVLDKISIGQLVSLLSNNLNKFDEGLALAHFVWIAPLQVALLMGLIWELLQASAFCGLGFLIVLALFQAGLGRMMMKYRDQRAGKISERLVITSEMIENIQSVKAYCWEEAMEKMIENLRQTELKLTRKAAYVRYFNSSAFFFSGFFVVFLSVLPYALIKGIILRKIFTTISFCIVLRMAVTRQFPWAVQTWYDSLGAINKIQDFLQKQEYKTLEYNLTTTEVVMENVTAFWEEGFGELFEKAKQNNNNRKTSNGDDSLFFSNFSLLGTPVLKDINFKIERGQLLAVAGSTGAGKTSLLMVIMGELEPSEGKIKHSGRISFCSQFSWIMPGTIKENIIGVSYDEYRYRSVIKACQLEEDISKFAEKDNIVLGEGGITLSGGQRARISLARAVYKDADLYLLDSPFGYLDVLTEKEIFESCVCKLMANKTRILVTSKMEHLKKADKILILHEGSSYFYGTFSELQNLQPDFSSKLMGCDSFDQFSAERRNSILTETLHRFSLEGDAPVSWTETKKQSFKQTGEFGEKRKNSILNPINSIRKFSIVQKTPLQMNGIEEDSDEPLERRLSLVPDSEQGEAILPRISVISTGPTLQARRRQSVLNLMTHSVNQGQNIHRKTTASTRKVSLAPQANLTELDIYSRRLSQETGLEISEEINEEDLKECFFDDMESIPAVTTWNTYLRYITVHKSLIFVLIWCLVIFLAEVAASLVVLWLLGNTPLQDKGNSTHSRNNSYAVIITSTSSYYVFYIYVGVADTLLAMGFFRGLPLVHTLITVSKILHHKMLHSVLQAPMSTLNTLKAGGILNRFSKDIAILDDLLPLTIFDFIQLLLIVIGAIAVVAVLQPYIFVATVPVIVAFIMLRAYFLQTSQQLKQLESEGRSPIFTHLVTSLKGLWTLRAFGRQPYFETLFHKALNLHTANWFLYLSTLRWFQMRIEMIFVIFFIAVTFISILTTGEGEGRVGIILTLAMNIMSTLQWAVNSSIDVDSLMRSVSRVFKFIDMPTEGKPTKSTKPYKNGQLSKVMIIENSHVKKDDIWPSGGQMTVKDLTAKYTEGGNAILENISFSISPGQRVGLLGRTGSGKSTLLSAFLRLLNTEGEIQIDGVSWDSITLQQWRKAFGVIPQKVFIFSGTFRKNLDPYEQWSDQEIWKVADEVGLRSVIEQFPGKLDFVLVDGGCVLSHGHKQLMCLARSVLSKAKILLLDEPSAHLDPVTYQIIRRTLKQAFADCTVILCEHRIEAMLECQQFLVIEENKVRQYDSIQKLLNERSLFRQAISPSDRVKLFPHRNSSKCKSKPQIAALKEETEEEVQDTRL

| SMILES | Ieq hBE Activity |
| --- | --- |
| O=C(NCCN1CCOCC1)c1cc(-c2cccs2)on1 [Compound 229] | + (+ indicates activity 10 to ≦25% run at 10 uM of VX-809 at 1 uM) |
| O=C(NCCc1csc(-c2ncccn2)n1)c1cc(-c2ccccc2)on1 [Compound 110] | ++ (++ indicates activity ≧25% run at 10 uM of VX-809 at 1 uM) |
| O=C(NCCCc1ccoc1)c1cc(-c2ccccc2)on1 [Compound 194] | + (+ indicates activity 10 to ≦25% run at 10 uM of VX-809 at 1 uM) |
| COCCNC(=O)c1cc(-c2ccc(C(F)(F)F)cc2)on1 [Compound 161] | + (+ indicates activity 10 to ≦25% run at 10 uM of VX-809 at 1 uM) |
| O=C(NCCc1cccnc1)c1cc(-c2cccs2)on1 [Compound 233] | + (+ indicates activity 10 to ≦25% run at 10 uM of VX-809 at 1 uM) |
| O=C(NCCCn1cccn1)c1cc(-c2ccccc2)on1 [Compound 189] | ++ (++ indicates activity ≧25% run at 10 uM of VX-809 at 1 uM) |
| CN1CCN(CCNC(=O)c2cc(-c3ccccc3)on2)CC1 [Compound 92] | ++ (++ indicates activity ≧25% run at 10 uM of VX-809 at 1 uM) |
| NS(=O)(=O)c1ccc(CCNC(=O)c2cc(-c3ccccc3)on2)cc1 [Compound 97] | ++ (++ indicates activity ≧25% run at 10 uM of VX-809 at 1 uM) |
| CSCc1noc(CNC(=O)c2cc(-c3ccccc3)on2)n1 [Compound 36] | ++ (++ indicates activity ≧25% run at 10 uM of VX-809 at 1 uM) |
| O=C(NCCCn1ccnc1)c1cc(-c2ccc(F)cc2)on1 [Compound 15] | + (+ indicates activity 10 to ≦25% run at 10 uM of VX-809 at 1 uM) |
| Cn1ccc(CNC(=O)c2cc(-c3ccccc3)on2)n1 [Compound 27] | + (+ indicates activity 10 to ≦25% run at 10 uM of VX-809 at 1 uM) |
| Cn1ccc(CCCNC(=O)c2cc(-c3ccccc3)on2)c1 [Compound 198] | ++ (++ indicates activity ≧25% run at 10 uM of VX-809 at 1 uM) |
| Nc1nnc(CCCNC(=O)c2cc(-c3ccccc3)on2)s1 [Compound 201] | ++ (++ indicates activity ≧25% run at 10 uM of VX-809 at 1 uM) |
| CCNC(=O)c1cc(-c2ccccc2)on1 [Compound 336] | ++ (++ indicates activity ≧25% run at 10 uM of VX-809 at 1 uM) |
| O=C(NCCCN1CCOCC1)c1cc(-c2ccc(F)cc2)on1 [Compound 128] | + (+ indicates activity 10 to ≦25% run at 10 uM of VX-809 at 1 uM) |
| Cc1ncc(NCCNC(=O)c2cc(-c3ccccc3)on2)[nH]c1=O [Compound 375] | + (+ indicates activity 10 to ≦25% run at 10 uM of VX-809 at 1 uM) |
| O=C(NCCn1ccnn1)c1cc(-c2ccccc2)on1 [Compound 376] | ++ (++ indicates activity ≧25% run at 10 uM of VX-809 at 1 uM) |
| O=C(NCCc1ccncc1)c1cc(-c2cccs2)on1 [Compound 234] | ++ (++ indicates activity ≧25% run at 10 uM of VX-809 at 1 uM) |
| O=C(NCC1CCOC1)c1cc(-c2cccs2)on1 (stereo not drawn) [Compound 226] | ++ (++ indicates activity ≧25% run at 10 uM of VX-809 at 1 uM) |
| O=C(NCC1CCCO1)c1cc(-c2ccccc2)on1 (stereo not drawn) [Compound 1] | ++ (++ indicates activity ≧25% run at 10 uM of VX-809 at 1 uM) |
| O=C(NCC1CCCC1)c1cc(-c2ccccc2)on1 [Compound 51] | + (+ indicates activity 10 to ≦25% run at 10 uM of VX-809 at 1 uM) |
| O=C(NCCN1CCOCC1)c1cc(-c2ccccc2)on1 [Compound 4] | ++ (++ indicates activity ≧25% run at 10 uM of VX-809 at 1 uM) |
| O=C(NCCc1noc(C2CCCC2)n1)c1cc(-c2ccccc2)on1 [Compound 12] | ++ (++ indicates activity ≧25% run at 10 uM of VX-809 at 1 uM) |
| O=C(NCCc1c[nH]c2ccccc12)c1cc(-c2ccccc2)on1 [Compound 120] | ++ (++ indicates activity ≧25% run at 10 uM of VX-809 at 1 uM) |
| Cc1nnsc1CNC(=O)c1cc(-c2ccccc2)on1 [Compound 344] | + (+ indicates activity 10 to ≦25% run at 10 uM of VX-809 at 1 uM) |
| O=C(NCC1CCCO1)c1cc(-c2cccs2)on1 (stereo not drawn) [Compound 225] | ++ (++ indicates activity ≧25% run at 10 uM of VX-809 at 1 uM) |

| SMILES | Ieq hBE Activity |
| --- | --- |
| Cn1nccc1CCCNC(=O)c1cc(-c2ccccc2)on1 [Compound 188] | ++ (++ indicates activity ≧25% run at 10 uM of VX-809 at 1 uM) |
| O=C(NCCCN1CCOCC1)c1cc(-c2ccccc2F)on1 [Compound 135] | + (+ indicates activity 10 to ≦25% run at 10 uM of VX-809 at 1 uM) |
| O=C(NCCCn1ncc2ccccc21)c1cc(-c2ccccc2)on1 [Compound 204] | ++ (++ indicates activity ≧25% run at 10 uM of VX-809 at 1 uM) |
| CN(CC1CCCO1)C(=O)c1cc(CN2CCOCC2)on1 (stereo not drawn) [Compound 256] | + (+ indicates activity 10 to ≦25% run at 10 uM of VX-809 at 1 uM) |
| COCCNC(=O)c1cc(-c2ccccc2F)on1 [Compound 150] | + (+ indicates activity 10 to ≦25% run at 10 uM of VX-809 at 1 uM) |
| O=C(NCCCn1ccnc1)c1cc(-c2cccs2)on1 [Compound 237] | ++ (++ indicates activity ≧25% run at 10 uM of VX-809 at 1 uM) |
| COCCNC(=O)c1cc(-c2ccc(F)cc2)on1 [Compound 19] | ++ (++ indicates activity ≧25% run at 10 uM of VX-809 at 1 uM) |
| O=C(NCCCn1nccc1C1CC1)c1cc(-c2ccccc2)on1 [Compound 200] | ++ (++ indicates activity ≧25% run at 10 uM of VX-809 at 1 uM) |
| O=C(NCCc1ccccc1)c1cc(-c2ccccc2)on1 [Compound 95] | ++ (++ indicates activity ≧25% run at 10 uM of VX-809 at 1 uM) |
| Cc1nnc(CCNC(=O)c2cc(-c3ccccc3)on2)s1 [Compound 8] | ++ (++ indicates activity ≧25% run at 10 uM of VX-809 at 1 uM) |
| O=C(NCCCC(F)(F)F)c1cc(-c2cccs2)on1 [Compound 223] | ++ (++ indicates activity ≧25% run at 10 uM of VX-809 at 1 uM) |
| O=C(NCCc1ccncc1)c1cc(-c2ccccc2)on1 [Compound 102] | ++ (++ indicates activity ≧25% run at 10 uM of VX-809 at 1 uM) |
| O=C(N[C@H]1CC[C@H](O)CC1)c1cc(-c2ccccc2)on1 [Compound 343] | + (+ indicates activity 10 to ≦25% run at 10 uM of VX-809 at 1 uM) |
| O=C(NCCNC(=O)c1cc(-c2ccccc2)on1)c1cccnc1 [Compound 373] | ++ (++ indicates activity ≧25% run at 10 uM of VX-809 at 1 uM) |
| Cc1nc(CCCNC(=O)c2cc(-c3ccccc3)on2)sc1C [Compound 191] | ++ (++ indicates activity ≧25% run at 10 uM of VX-809 at 1 uM) |
| O=C(NCCC1CCOCC1)c1cc(-c2cccs2)on1 [Compound 230] | ++ (++ indicates activity ≧25% run at 10 uM of VX-809 at 1 uM) |
| COCCNC(=O)c1cc(-c2cccs2)on1 [Compound 224] | ++ (++ indicates activity ≧25% run at 10 uM of VX-809 at 1 uM) |
| O=C(NCCCCO)c1cc(-c2cccs2)on1 [Compound 349] | ++ (++ indicates activity ≧25% run at 10 uM of VX-809 at 1 uM) |
| O=C(NCCCn1nnc2ccccc21)c1cc(-c2ccccc2)on1 [Compound 205] | ++ (++ indicates activity ≧25% run at 10 uM of VX-809 at 1 uM) |
| O=C(NCCn1ccnn1)c1cc(-c2cccs2)on1 [Compound 377] | ++ (++ indicates activity ≧25% run at 10 uM of VX-809 at 1 uM) |
| O=C(NCCN1C(=O)CSC1=O)c1cc(-c2ccccc2)on1 [Compound 94] | + (+ indicates activity 10 to ≦25% run at 10 uM of VX-809 at 1 uM) |
| O=C(NCCCn1cccc1)c1cc(-c2ccccc2)on1 [Compound 186] | ++ (++ indicates activity ≧25% run at 10 uM of VX-809 at 1 uM) |
| CCc1ncc(CCNC(=O)c2cc(-c3ccccc3)on2)s1 [Compound 374] | + (+ indicates activity 10 to ≦25% run at 10 uM of VX-809 at 1 uM) |
| O=C(NCCCCc1ccncc1)c1cc(-c2cccs2)on1 [Compound 239] | + (+ indicates activity 10 to ≦25% run at 10 uM of VX-809 at 1 uM) |
| O=C(NCC1CCCO1)c1cc(-c2ccco2)on1 (stereo not drawn) [Compound 321] | + (+ indicates activity 10 to ≦25% run at 10 uM of VX-809 at 1 uM) |

From US20160151335A1, “METHODS OF MODULATING CFTR ACTIVITY” (PROTEOSTASIS THERAPEUTICS, INC., priority 2013, published 2016)
